Data: US20100317672A1, “Monomaleate Monohydrate Salt of a 5HT1A Receptor Antagonist” (GLAXO GROUP LIMITED, priority 2008, published 2010)
Where a name gives a salt, the structure may show the parent alone.

What was measured:
[1] = hygroscopicity of the dihydrochloride salt (stated in words, no method); type: physicochemical; conditions: shows variable stoichiometry
[2] = solubility of the free base (stated in words, no method); type: physicochemical; conditions: said to be therefore not readily bioavailable
5-HT1A receptor = target: T1, 5-HT1A receptor (Homo sapiens, UniProt P08908); assay: antagonism of the 5-HT1A receptor (stated in words, no method); type: biochemical
T1 sequence (P08908 1-422): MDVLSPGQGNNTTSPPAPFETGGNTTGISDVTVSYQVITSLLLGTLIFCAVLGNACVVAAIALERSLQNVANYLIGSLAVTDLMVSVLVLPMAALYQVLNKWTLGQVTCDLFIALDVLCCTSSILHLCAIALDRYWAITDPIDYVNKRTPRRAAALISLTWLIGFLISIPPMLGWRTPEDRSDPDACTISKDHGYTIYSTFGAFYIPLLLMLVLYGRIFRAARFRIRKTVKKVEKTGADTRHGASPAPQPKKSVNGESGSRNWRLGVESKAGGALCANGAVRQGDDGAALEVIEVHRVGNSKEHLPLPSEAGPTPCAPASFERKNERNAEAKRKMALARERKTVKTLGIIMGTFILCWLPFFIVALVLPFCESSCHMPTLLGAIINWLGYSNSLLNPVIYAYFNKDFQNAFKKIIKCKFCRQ

5-HT1B receptor = 5-HT1B receptor (Homo sapiens, UniProt P28222); assay: antagonism of the 5-HT1B receptor, selectivity comparison (stated in words, no method); type: biochemical; conditions: better antagonist of 5-HT1A than of 5-HT1B
Chain of 5-HT1B receptor (P28222 whole entry): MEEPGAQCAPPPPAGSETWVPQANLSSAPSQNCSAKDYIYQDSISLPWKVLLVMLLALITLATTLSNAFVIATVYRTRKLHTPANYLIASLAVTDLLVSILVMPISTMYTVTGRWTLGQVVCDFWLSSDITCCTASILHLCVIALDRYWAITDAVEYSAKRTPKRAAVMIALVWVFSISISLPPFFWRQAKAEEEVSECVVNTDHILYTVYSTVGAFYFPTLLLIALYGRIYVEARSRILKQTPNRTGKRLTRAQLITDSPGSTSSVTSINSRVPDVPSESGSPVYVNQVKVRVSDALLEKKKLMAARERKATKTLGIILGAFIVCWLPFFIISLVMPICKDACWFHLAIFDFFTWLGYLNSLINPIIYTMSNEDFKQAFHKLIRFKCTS

In the case of Cc1ccc2c(N3CCN(CCc4c(C)ccc5c4CCc4c(C(N)=O)ncn4-5)CC3)cccc2n1 [dihydrochloride salt, 7-methyl-6-{2-[4-(2-methyl-5-quinolinyl)-1-piperazinyl]ethyl}-4,5-dihydroimidazo[1,5-a]quinoline-3-carboxamide], the hygroscopicity [1] is reported as “hygroscopic”.

In the case of Cc1ccc2c(N3CCN(CCc4c(C)ccc5c4CCc4c(C(N)=O)ncn4-5)CC3)cccc2n1 [free base, 7-methyl-6-{2-[4-(2-methyl-5-quinolinyl)-1-piperazinyl]ethyl}-4,5-dihydroimidazo[1,5-a]quinoline-3-carboxamide], the solubility [2] is reported as “insoluble”.

In the case of Cc1ccc2c(N3CCN(CCc4c(C)ccc5c4CCc4c(C(N)=O)ncn4-5)CC3)cccc2n1.O.O=C(O)/C=C\C(=O)O [salt of the invention, 7-methyl-6-{2-[4-(2-methyl-5-quinolinyl)-1-piperazinyl]ethyl}-4,5-dihydroimidazo[1,5-a]quinoline-3-carboxamide monomaleate monohydrate], the “antagonist of the 5-HT1A receptor” value (5-HT1A receptor) is reported as “effective antagonist” and the “selectivity for the 5-HT1A receptor over the 5-HT1B receptor” value (5-HT1B receptor) is reported as “high selectivity”.
